Experimental data from US20220235030A1, “SELECTIVE HISTAMINE H3 ANTAGONIST ACID ADDITION SALTS AND PROCESS FOR THE PREPARATION THEREOF” (RICHTER GEDEON NYRT., priority 2019, published 2022).
Entries after “also recorded” stand apart in the source; their conditions may differ. Where a name gives a salt, the structure may show the parent alone. Read-outs that look alike come from different tables or passages of the source. Blank lines part the entries; values can stand above or below the compound they belong to.

What was measured:
Format in all cases: physicochemical
[1] = 10-day solid stress stability study, HPLC purity test; details: for chemical stability (in words): 10-day solid stress: heat, heat and humidity
Text: Increased stability to ambient humidity is beneficial for longer-term physical and chemical stability of the active ingredient. The relationship between the reduced hygroscopic nature and the increased chemical stability associated with it is shown in the most preferred citrate salts in comparison to the dihydrochloride salt.

[2] = Solubility in simulated gastric fluid; details: simulated gastric fluid (SGF without pepsin, pH=1.3)
Text: The generally observed hygroscopic nature of the 1-[4-(4-{3-[(2R)-2-methyl-pyrrolidin-1-yl]-propoxy}-phenoxy)-piperidin-1-yl]-ethanone salts is inter alia related to the good solubility thereof.

[3] = Dynamic vapor sorption (DVS) analysis at 25° C., hygroscopicity and deliquescence; set-up: Δm/ΔRH: unit not given beside the values; details: for Critical Relative Humidity (CRH) / relative humidity above which high, continuous weight gain (deliquescence) is observed: DVS at 25° C.; for Critical Relative Humidity (CRH): RH1 of first sorption step with Δm/ΔRH≥0.5; for Δm/ΔRH / relative humidity above which high, continuous weight gain (deliquescence) is observed: sorption; for Δm/ΔRH / relative weight change: 25° C.; for relative weight change: 95% RH
Procedure: Determination of the critical relative humidity is feasible by gravimetric method, e.g. with DVS, where relative humidity is changed in suitably selected steps and a sufficiently long time is used to the onset of quasi-equilibrium.
The deliquescence tendency of each salt is characterized by the critical relative humidity (CRH) value (Table 1), which was determined based on the sorption curves measured according to the measurement parameter settings below, with DVS analysis at 25° C. isotherm conditions, according to the following. […]
If the given sorption step is Δm/ΔRH≥0.5, then RH1 is considered to be the critical relative humidity (CRH) value indicating the end point of the physical stability of the substance. The value thus determined is a good match with the onset of a significant monotonic weight gain observed visually on the sorption curve. Above the critical relative humidity value, it is the process of deliquescence of the substance that determines the weight gain observed on the sorption curve.

[4] = listed as monohydrochloride Form A
[5] = listed as monohydrochloride Form B

SMILES: CC(=O)N1CCC(Oc2ccc(OCCCN3CCC[C@H]3C)cc2)CC1 [sulfate, 1-[4-(4-{3-[(2R)-2-methyl-pyrrolidin-1-yl]-propoxy}-phenoxy)-piperidin-1-yl]-ethanone sulfate salt]
Critical Relative Humidity (CRH) ([3]; sulfate salt): 80%
Δm/ΔRH ([3]; RH1 0%, sulfate salt): 0.4
Δm/ΔRH ([3]; RH1 10%, sulfate salt): 0.0
Δm/ΔRH ([3]; RH1 20%, sulfate salt): 0.0
Δm/ΔRH ([3]; RH1 30%, sulfate salt): 0.0
Δm/ΔRH ([3]; RH1 40%, sulfate salt): 0.0
Δm/ΔRH ([3]; RH1 50%, sulfate salt): 0.0
Δm/ΔRH ([3]; RH1 60%, sulfate salt): 0.0
Δm/ΔRH ([3]; RH1 70%, sulfate salt): 0.1
Δm/ΔRH ([3]; RH1 80%, sulfate salt): 1.6
relative weight change ([3]; sorption curve, sulfate salt): 53%
water bound ([3]; sorption curve, up to 80% RH, sulfate salt): about 5%

SMILES: CC(=O)N1CCC(Oc2ccc(OCCCN3CCC[C@H]3C)cc2)CC1 [diHBr, 1-[4-(4-{3-[(2R)-2-methyl-pyrrolidin-1-yl]-propoxy}-phenoxy)-piperidin-1-yl]-ethanone dihydrobromide salt]
Critical Relative Humidity (CRH) ([3]; dihydrobromide salt): 70%
Δm/ΔRH ([3]; RH1 0%, dihydrobromide salt): 0.0
Δm/ΔRH ([3]; RH1 10%, dihydrobromide salt): 0.0
Δm/ΔRH ([3]; RH1 20%, dihydrobromide salt): 0.0
Δm/ΔRH ([3]; RH1 30%, dihydrobromide salt): 0.0
Δm/ΔRH ([3]; RH1 40%, dihydrobromide salt): 0.1
Δm/ΔRH ([3]; RH1 50%, dihydrobromide salt): 0.1
Δm/ΔRH ([3]; RH1 60%, dihydrobromide salt): 0.3
Δm/ΔRH ([3]; RH1 70%, dihydrobromide salt): 3.1
Δm/ΔRH ([3]; RH1 80%, dihydrobromide salt): 3.3
relative weight change ([3]; sorption curve, dihydrobromide salt): 90%
moisture absorbed ([3]; sorption curve, up to 70% RH): about 6%

SMILES: CC(=O)N1CCC(Oc2ccc(OCCCN3CCC[C@H]3C)cc2)CC1 [monoHCl Form B, 1-[4-(4-{3-[(2R)-2-methyl-pyrrolidin-1-yl]-propoxy}-phenoxy)-piperidin-1-yl]-ethanone monohydrochloride salt Form B]
Critical Relative Humidity (CRH) [3]: 30%
Δm/ΔRH ([3]; RH1 0%): 0.0
Δm/ΔRH ([3]; RH1 10%): 0.0
Δm/ΔRH ([3]; RH1 20%): 0.0
Δm/ΔRH ([3]; RH1 30%): 0.6
Δm/ΔRH ([3]; RH1 40%): 0.7
Δm/ΔRH ([3]; RH1 50%): 0.4
Δm/ΔRH ([3]; RH1 60%): 0.6
Δm/ΔRH ([3]; RH1 70%): 0.9
Δm/ΔRH ([3]; RH1 80%): 1.5
hygroscopicity (in words) [3, 5]: highly hygroscopic
relative weight change ([3]; sorption curve): 61%
water bound ([3]; sorption curve, up to 30% RH): 0.3%
relative humidity above which high, continuous weight gain (deliquescence) is observed [3, 5]: above 30%

More lines, main results first:

chemical stability (in words) [1]: stable
All contaminant (area %) ([1]; 10 days, 40° C., 75% RH, open glass): 0.19% area %
All contaminant (area %) ([1]; 10 days, 50° C., 75% RH, open glass): 0.19% area %
All contaminant (area %) ([1]; 10 days, 50° C., sealed glass): 0.20% area %
All contaminant (area %) ([1]; 10 days, 75° C., sealed glass): 0.19% area %
All contaminant (area %) ([1]; starting sample): 0.19% area %
solubility [2]: greater than 44 mM
hygroscopicity (in words) [3]: poorly hygroscopic
Critical Relative Humidity (CRH) [3]: not deliquescent
Δm/ΔRH ([3]; RH1 0%): 0.0
Δm/ΔRH ([3]; RH1 10%): 0.0
Δm/ΔRH ([3]; RH1 20%): 0.2
Δm/ΔRH ([3]; RH1 30%): 0.1
Δm/ΔRH ([3]; RH1 40%): 0.0
Δm/ΔRH ([3]; RH1 50%): 0.0
Δm/ΔRH ([3]; RH1 60%): 0.0
Δm/ΔRH ([3]; RH1 70%): 0.0
Δm/ΔRH ([3]; RH1 80%): 0.0
deliquescence (in words) ([3]; above 90% RH, DVS 25° C.): did not show deliquescence
relative humidity at which monohydrate Form A converts to anhydrate Form B ([3]; during desorption): below 10 % RH
deliquescence (in words) ([3]; under the conditions of the DVS analysis): not deliquescent
deliquescence (in words) ([3]; under the conditions of the DVS analysis, listed as Monocitrate): do not show deliquescence
SMILES: CC(=O)N1CCC(Oc2ccc(OCCCN3CCC[C@H]3C)cc2)CC1 [monocitrate, 1-[4-(4-{3-[(2R)-2-methyl-pyrrolidin-1-yl]-propoxy}-phenoxy)-piperidin-1-yl]-ethanone monocitrate salt Form A]

Critical Relative Humidity (CRH) [3]: 40%
Δm/ΔRH ([3]; RH1 0%): 0.0
Δm/ΔRH ([3]; RH1 10%): 0.0
Δm/ΔRH ([3]; RH1 20%): 0.0
Δm/ΔRH ([3]; RH1 30%): 0.3
Δm/ΔRH ([3]; RH1 40%): 1.1
Δm/ΔRH ([3]; RH1 50%): 0.5
Δm/ΔRH ([3]; RH1 60%): 0.6
Δm/ΔRH ([3]; RH1 70%): 1.1
Δm/ΔRH ([3]; RH1 80%): 2.6
hygroscopicity (in words) [3, 4]: highly hygroscopic
relative weight change ([3]; sorption curve): 97%
water bound ([3]; sorption curve, up to 40% RH): about 3%
relative humidity above which high, continuous weight gain (deliquescence) is observed [3, 4]: above 40%
SMILES: CC(=O)N1CCC(Oc2ccc(OCCCN3CCC[C@H]3C)cc2)CC1 [monoHCl Form A, 1-[4-(4-{3-[(2R)-2-methyl-pyrrolidin-1-yl]-propoxy}-phenoxy)-piperidin-1-yl]-ethanone monohydrochloride salt Form A]

Critical Relative Humidity (CRH) ([3]; oxalate salt): not deliquescent
Δm/ΔRH ([3]; RH1 0%, oxalate salt): 0.0
Δm/ΔRH ([3]; RH1 10%, oxalate salt): 0.1
Δm/ΔRH ([3]; RH1 20%, oxalate salt): 0.1
Δm/ΔRH ([3]; RH1 30%, oxalate salt): 0.2
Δm/ΔRH ([3]; RH1 40%, oxalate salt): 0.1
Δm/ΔRH ([3]; RH1 50%, oxalate salt): 0.0
Δm/ΔRH ([3]; RH1 60%, oxalate salt): 0.0
Δm/ΔRH ([3]; RH1 70%, oxalate salt): 0.0
Δm/ΔRH ([3]; RH1 80%, oxalate salt): 0.1
deliquescence (in words) ([3]; above 90% RH, DVS 25° C., oxalate salt): does not even show deliquescence
relative weight gain relative to the dried weight ([3]; sorption curve, 10-50% RH range, constant up to approx. 70% RH): about 4.7%
deliquescence (in words) ([3]; under the conditions of the DVS analysis, oxalate salt): not deliquescent
SMILES: CC(=O)N1CCC(Oc2ccc(OCCCN3CCC[C@H]3C)cc2)CC1 [oxalate, 1-[4-(4-{3-[(2R)-2-methyl-pyrrolidin-1-yl]-propoxy}-phenoxy)-piperidin-1-yl]-ethanone oxalate salt]

chemical stability (in words) ([1]; dicitrate salt): stable
All contaminant (area %) ([1]; 10 days, 40° C., 75% RH, open glass, dicitrate salt): 0.24% area %
All contaminant (area %) ([1]; 10 days, 50° C., 75% RH, open glass, dicitrate salt): 0.25% area %
All contaminant (area %) ([1]; 10 days, 50° C., sealed glass, dicitrate salt): 0.23% area %
All contaminant (area %) ([1]; 10 days, 75° C., sealed glass, dicitrate salt): 0.24% area %
All contaminant (area %) ([1]; starting sample, dicitrate salt): 0.23% area %
solubility ([2]; dicitrate salt): 469 mM
Critical Relative Humidity (CRH) ([3]; dicitrate salt): not deliquescent
Δm/ΔRH ([3]; RH1 0%, dicitrate salt): 0.0
Δm/ΔRH ([3]; RH1 10%, dicitrate salt): 0.0
Δm/ΔRH ([3]; RH1 20%, dicitrate salt): 0.0
Δm/ΔRH ([3]; RH1 30%, dicitrate salt): 0.0
Δm/ΔRH ([3]; RH1 40%, dicitrate salt): 0.0
Δm/ΔRH ([3]; RH1 50%, dicitrate salt): 0.0
Δm/ΔRH ([3]; RH1 60%, dicitrate salt): 0.0
Δm/ΔRH ([3]; RH1 70%, dicitrate salt): 0.0
Δm/ΔRH ([3]; RH1 80%, dicitrate salt): 0.1
deliquescence (in words) ([3]; above 90% RH, DVS 25° C., dicitrate salt): does not show deliquescence
hygroscopicity (in words) ([3]; dicitrate salt): poorly hygroscopic
water bound ([3]; sorption curve, up to 80% RH, dicitrate salt): 3.2%
water bound ([3]; sorption curve, up to 90% RH): 6.8%
SMILES: CC(=O)N1CCC(Oc2ccc(OCCCN3CCC[C@H]3C)cc2)CC1 [dicitrate, 1-[4-(4-{3-[(2R)-2-methyl-pyrrolidin-1-yl]-propoxy}-phenoxy)-piperidin-1-yl]-ethanone dicitrate salt]
deliquescence (in words) ([3]; under the conditions of the DVS analysis, dicitrate salt): do not show deliquescence; also recorded: not deliquescent
